Experimental data published in patent US7935702B2, “Substituted biaryl quinolin-4-ylamine analogues” (Neurogen Corporation, priority 2004, dated 2011).

biological target: T1, human capsaicin receptor (Homo sapiens, UniProt Q8NER1); assay: Calcium mobilization assay, determination of antagonist activity (Example 6); format: cell-based; parameters: IC50 determined as described in Example 6: scale not given here; details: Table I; IC50 determined as described in Example 6; read-out: IC50
T1 construct: expressed in transfected cells
Procedure: A cDNA encoding full length human capsaicin receptor (SEQ ID NO:1, 2 or 3 of U.S. Pat. No. 6,482,611) is subcloned in the plasmid pBK-CMV (Stratagene, La Jolla, Calif.) for recombinant expression in mammalian cells.
Human embryonic kidney (HEK293) cells are transfected with the pBK-CMV expression construct encoding the full length human capsaicin receptor using standard methods. The transfected cells are selected for two weeks in media containing G418 (400 μg/ml) to obtain a pool of stably transfected cells. Independent clones are isolated from this pool by limiting dilution to obtain clonal stable cell lines for use in subsequent experiments.
This Example illustrates representative calcium mobilization assays for use in evaluating test compounds for agonist and antagonist activity.
Cells transfected with expression plasmids (as described in Example 4) and thereby expressing human capsaicin receptor are seeded and grown to 70-90% confluency in FALCON black-walled, clear-bottomed 96-well plates (#3904, BECTON-DICKINSON, Franklin Lakes, N.J.). The culture medium is emptied from the 96 well plates and FLUO-3 AM calcium sensitive dye (Molecular Probes, Eugene, Oreg.) is added to each well (dye solution: 1 mg FLUO-3 AM, 440 μL DMSO and 440 μl 20% pluronic acid in DMSO, diluted 1:250 in Krebs-Ringer HEPES (KRH) buffer (25 mM HEPES, 5 mM KCl, 0.96 mM NaH2PO4, 1 mM MgSO4, 2 mM CaCl2, 5 mM glucose, 1 mM probenecid, pH 7.4), 50 μl diluted solution per well). Plates are covered with aluminum foil and incubated at 37° C. for 1-2 hours in an environment containing 5% CO2. After the incubation, the dye is emptied from the plates, and the cells are washed once with KRH buffer, and resuspended in KRH buffer.
To measure the ability of a test compound to agonize or antagonize a calcium mobilization response in cells expressing capsaicin receptors to capsaicin or other vanilloid agonist, the EC50 of the agonist capsaicin is first determined. An additional 20 μl of KRH buffer and 1 μl DMSO is added to each well of cells, prepared as described above. 100 μl capsaicin in KRH buffer is automatically transferred by the FLIPR instrument to each well. Capsaicin-induced calcium mobilization is monitored using either FLUOROSKAN ASCENT (Labsystems; Franklin, Mass.) or FLIPR (fluorometric imaging plate reader system; Molecular Devices, Sunnyvale, Calif.) instruments. Data obtained between 30 and 60 seconds after agonist application are used to generate an 8-point concentration response curve, with final capsaicin concentrations of 1 nM to 3 μM. KALEIDAGRAPH software (Synergy Software, Reading, Pa.) is used to fit the data to the equation: y=a*(1/(1+(b/x)^c)) to determine the 50% excitatory concentration (EC50) for the response. In this equation, y is the maximum fluorescence signal, x is the concentration of the agonist or antagonist (in this case, capsaicin), a is the Emax, b corresponds to the EC50 value and c is the Hill coefficient. Determination of Agonist Activity
Test compounds are dissolved in DMSO, diluted in 20 μl KRH buffer so that the final concentration of test compounds in the assay well is between 1 μM and 5 μM, and added to cells prepared as described above. The 96 well plates containing prepared cells and test compounds are incubated in the dark, at room temperature for 0.5 to 6 hours. It is important that the incubation not continue beyond 6 hours. Just prior to determining the fluorescence response, 100 μl capsaicin in KRH buffer at twice the EC50 concentration determined as described above is automatically added by the FLIPR instrument to each well of the 96 well plate for a final sample volume of 200 μl and a final capsaicin concentration equal to the EC50. The final concentration of test compounds in the assay wells is between 1 μM and 5 μM. […]

T1 sequence (Q8NER1 whole entry): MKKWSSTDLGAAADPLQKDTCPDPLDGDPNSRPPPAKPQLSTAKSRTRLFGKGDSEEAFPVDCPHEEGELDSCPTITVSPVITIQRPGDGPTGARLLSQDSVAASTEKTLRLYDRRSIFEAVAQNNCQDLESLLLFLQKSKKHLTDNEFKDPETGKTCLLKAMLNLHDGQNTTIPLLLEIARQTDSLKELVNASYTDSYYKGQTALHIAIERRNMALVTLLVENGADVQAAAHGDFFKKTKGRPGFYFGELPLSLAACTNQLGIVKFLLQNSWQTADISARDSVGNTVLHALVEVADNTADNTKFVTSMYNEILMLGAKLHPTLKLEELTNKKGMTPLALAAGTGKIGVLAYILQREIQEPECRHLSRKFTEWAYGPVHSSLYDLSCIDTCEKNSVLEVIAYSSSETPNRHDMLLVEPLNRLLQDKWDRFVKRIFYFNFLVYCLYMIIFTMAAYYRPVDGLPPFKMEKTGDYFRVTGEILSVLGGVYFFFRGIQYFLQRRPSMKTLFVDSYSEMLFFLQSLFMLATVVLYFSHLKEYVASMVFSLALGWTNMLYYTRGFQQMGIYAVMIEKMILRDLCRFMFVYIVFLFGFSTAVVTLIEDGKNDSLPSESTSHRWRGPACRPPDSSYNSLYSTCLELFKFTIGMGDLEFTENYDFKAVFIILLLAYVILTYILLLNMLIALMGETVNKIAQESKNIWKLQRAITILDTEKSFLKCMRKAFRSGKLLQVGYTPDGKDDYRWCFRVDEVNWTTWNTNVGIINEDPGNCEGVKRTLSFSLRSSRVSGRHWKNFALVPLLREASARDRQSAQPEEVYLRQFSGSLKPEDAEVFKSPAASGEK

Q: How did the IC50 turn out when CCN(CC)CCCCNc1cc(C(F)(F)F)c(-c2cnc3c(Nc4ccc(C(F)(F)F)cn4)ccnc3n2)nn1 [compound 69, N,N-diethyl-N′-[5-(trifluoromethyl)-6-(8-{[5-(trifluoromethyl)pyridin-2-yl]amino}pyrido[2,3-b]pyrazin-3-yl)pyridazin-3-yl]butane-1,4-diamine] was run?
A: Its IC50 is less than 1000 nM.

Q: For O[C@@H]1CCN(c2cc(C(F)(F)F)c(-c3cnc4c(Nc5ccc(C(F)(F)F)cn5)ccnc4n3)nn2)C1 [compound 170, (R)-1-[5-(trifluoromethyl)-6-(8-{[5-(trifluoromethyl)-pyridin-2-yl]amino}-pyrido[2,3-b]pyrazin-3-yl)-pyridazin-3-yl]pyrrolidin-3-ol], which IC50 is on record?
A: The IC50 was less than 1000 nM.

Q: How did the IC50 turn out when CCCN(CC1CC1)c1cc(C(F)(F)F)c(-c2cnc3c(Nc4ccc(C(F)(F)F)cn4)ccnc3n2)nn1 [compound 153, 3-{6-[(cyclopropylmethyl)-(propyl)amino]-4-(trifluoro-methyl)pyridazin-3-yl}-N-[5-(trifluoromethyl)pyridin-2-yl]pyrido[2,3-b]pyrazin-8-amine] was run?
A: The IC50 was less than 1000 nM.

Q: Which IC50 does the source give for FC(F)(F)c1ccc(Nc2ccnc3nc(-c4nnc(NC5CC5)cc4C(F)(F)F)cnc23)nc1 [compound 104, 3-[6-(cyclopropylamino)-4-(trifluoromethyl)pyridazin-3-yl]-N-[5-(trifluoromethyl)-pyridin-2-yl]pyrido[2,3-b]pyrazin-8-amine] here?
A: Its IC50 is less than 1000 nM.

Q: Which IC50 does the source give for O=C(O)c1ccc(C(F)(F)F)c(-c2ccc3c(Nc4ccc(C(F)(F)F)cn4)ccnc3n2)n1 [compound 26, 5-Trifluoromethyl-6-[5-(5-trifluoromethyl-pyridin-2-ylamino)-[1,8]naphthyridin-2-yl]-pyridine-2-carboxylic acid] here?
A: The IC50 was less than 1000 nM.

Q: How did the IC50 turn out when CS(=O)(=O)c1ccc(-c2cnc3c(Nc4ccc(C(F)(F)F)cn4)ccnc3n2)c(C(F)(F)F)c1 [compound 41, 3-[4-(methylsulfonyl)-2-(trifluoromethyl)phenyl]-N-[5-(trifluoromethyl)pyridin-2-yl]pyrido[2,3-b]pyrazin-8-amine] was run?
A: The IC50 was less than 1000 nM.

Q: Which IC50 does the source give for CN(C)CC1CCCCN1c1cc(C(F)(F)F)c(-c2cnc3c(Nc4ccc(C(F)(F)F)cn4)ccnc3n2)nn1 (centres unmarked) [compound 164, 3-[6-{2-[(dimethylamino)-methyl]piperidin-1-yl}-4-(trifluoromethyl)pyridazin-3-yl)-N-[5-(trifluoromethyl)-pyridin-2-yl]pyrido[2,3-b]pyrazin-8-amine] here?
A: The IC50 was less than 1000 nM.

Q: For Oc1ccc(C(F)(F)F)c(-c2ccc3c(Nc4ccc(C(F)(F)F)cn4)ccnc3n2)n1 [compound 21, 5-Trifluoromethyl-6-[5-(5-trifluoromethyl-pyridin-2-ylamino)-[1,8]naphthyridin-2-yl]-pyridin-2-ol], which IC50 is on record?
A: Its IC50 is less than 1000 nM.

Q: For CCOc1nc(Nc2ccnc3nc(-c4ccc(C#N)cc4C(F)(F)F)cnc23)ccc1C(F)(F)F [compound 42, 4-(8-{[6-ethoxy-5-(trifluoromethyl)pyridin-2-yl]amino}pyrido[2,3-b]pyrazin-3-yl)-3-(trifluoromethyl)benzonitrile], which IC50 is on record?
A: Its IC50 is less than 1000 nM.

Q: Which IC50 does the source give for FC(F)(F)c1ccc(Nc2ccnc3nc(-c4nnc(NCCN5CCCCC5)cc4C(F)(F)F)cnc23)nc1 [compound 53, 3-{6-[(2-piperidin-1-ylethyl)amino]-4-(trifluoromethyl)pyridazin-3-yl}-N-[5-(trifluoromethyl)-pyridin-2-yl]pyrido[2,3-b]pyrazin-8-amine] here?
A: The IC50 was less than 1000 nM.

Q: For CCCN(CC1CC1)C1CCN(c2cc(C(F)(F)F)c(-c3cnc4c(Nc5ccc(C(F)(F)F)cn5)ccnc4n3)nn2)CC1 [compound 87, 3-[6-{4-[(cyclopropylmethyl)-(propyl)amino]piperidin-1-yl}-4-(trifluoromethyl)-pyridazin-3-yl]-N-[5-(trifluoromethyl)pyridin-2-yl]-pyrido[2,3-b]pyrazin-8-amine], which IC50 is on record?
A: Its IC50 is less than 1000 nM.

Q: For CC(C)N(CCCO)c1cc(C(F)(F)F)c(-c2cnc3c(Nc4ccc(C(F)(F)F)cn4)ccnc3n2)nn1 [compound 178, 3-{isopropyl[5-(trifluoro-methyl)-6-(8-{[5-(trifluoro-methyl)pyridin-2-yl]amino}-pyrido[2,3-b]pyrazin-3-yl)pyridazin-3-yl]amino}propan-1-ol], which IC50 is on record?
A: Its IC50 is less than 1000 nM.

Q: For FC(F)(F)c1ccc(Nc2ccnc3nc(-c4nc(Cl)ccc4C(F)(F)F)ccc23)nc1 [compound 23, [7-(6-Chloro-3-trifluoromethyl-pyridin-2-yl)-[1,8]naphthyridin-4-yl]-(5-trifluoromethyl-pyridin-2-yl)-amine], which IC50 is on record?
A: Its IC50 is less than 1000 nM.

Q: With N#Cc1cnc(-c2cnc3c(Nc4ccc(C(F)(F)F)cn4)ccnc3n2)c(C(F)(F)F)c1 [compound 32, 5-Trifluoromethyl-6-[8-(5-trifluoromethyl-pyridin-2-ylamino)-pyrido[2,3-b]pyrazin-3-yl]-nicotinonitrile] as the compound, how does the IC50 read?
A: The IC50 was less than 1000 nM.

Q: How did the IC50 turn out when NC(=O)c1cnc(-c2cnc3c(Nc4cnc(C(F)(F)F)cn4)ccnc3n2)c(C(F)(F)F)c1 [compound 34, 5-(trifluoromethyl)-6-(8-{[5-(trifluoromethyl)pyrazin-2-yl]amino}pyrido[2,3-b]pyrazin-3-yl)nicotinamide] was run?
A: The IC50 was less than 1000 nM.

Q: CCC(CC)Nc1cc(C(F)(F)F)c(-c2cnc3c(Nc4ccc(C(F)(F)F)cn4)ccnc3n2)nn1 [compound 115, 3-{6-[(1-ethylpropyl)amino]-4-(trifluoromethyl)pyridazin-3-yl}-N-[5-(trifluoromethyl)-pyridin-2-yl]pyrido[2,3-b]pyrazin-8-amine] was tested. Which IC50 did it give?
A: The IC50 was less than 1000 nM.

Q: With OC1CN(c2cc(C(F)(F)F)c(-c3cnc4c(Nc5ccc(C(F)(F)F)cn5)ccnc4n3)nn2)C1 [compound 179, 1-[5-(trifluoromethyl)-6-(8-{[5-(trifluoromethyl)pyridin-2-yl]amino}pyrido[2,3-b]pyrazin-3-yl)pyridazin-3-yl]azetidin-3-ol] as the compound, how does the IC50 read?
A: The IC50 was less than 1000 nM.

Q: N#Cc1ccc(C(F)(F)F)c(-c2ccc3c(Nc4ccc(C(F)(F)F)cn4)ccnc3n2)n1 [compound 24, 5-Trifluoromethyl-6-[5-(5-trifluoromethyl-pyridin-2-ylamino)-[1,8]naphthyridin-2-yl]-pyridine-2-carbonitrile] was tested. Which IC50 did it give?
A: The IC50 was less than 1000 nM.

same assay, conditions: cells expressing human capsaicin receptor; capsaicin at EC50

Q: With N#Cc1cnc(-c2cnc3c(Nc4ccc(C(F)(F)F)cn4)ccnc3n2)c(C(F)(F)F)c1 [Compound 11, 5-(Trifluoromethyl)-6-(8-(5-(trifluoromethyl)pyridin-2-ylamino)pyrido[2,3-b]pyrazin-3-yl)nicotinonitrile] as the compound, how does the “IC50 determined as described in Example 6” value read?
A: The value was “less”.

same assay, conditions: cells expressing human capsaicin receptor; capsaicin at EC50; read-out: IC50 determined as described in Example 6

Q: How did the IC50 turn out when N#Cc1cnc(-c2ccc3c(Nc4ccc(C(F)(F)F)cn4)ccnc3n2)c(C(F)(F)F)c1 [Compound 7, 5-Trifluoromethyl-6-[5-(5-trifluoromethyl-pyridin-2-ylamino)-[1,8]naphthyridin-2-yl]-nicotinonitrile] was run?
A: Its IC50 is less than 1000 nM.

Q: How did the IC50 turn out when NC(=O)c1cnc(-c2ccc3c(Nc4ccc(C(F)(F)F)cn4)ccnc3n2)c(C(F)(F)F)c1 [Compound 8, 5-Trifluoromethyl-6-[5-(5-trifluoromethyl-pyridin-2-ylamino)-[1,8]naphthyridin-2-yl]-nicotinamide] was run?
A: Its IC50 is less than 1000 nM.

Q: With NC(=O)c1cnc(-c2cnc3c(Nc4cnc(C(F)(F)F)cn4)ccnc3n2)c(C(F)(F)F)c1 [Compound 15, 5-(Trifluoromethyl)-6-(8-(5-(trifluoromethyl)pyrazin-2-ylamino)pyrido[2,3-b]pyrazin-3-yl)nicotinamide] as the compound, how does the IC50 read?
A: Its IC50 is less than 1000 nM.

Q: Which IC50 does the source give for O=C(O)c1cnc(-c2cnc3c(Nc4ccc(C(F)(F)F)cn4)ccnc3n2)c(C(F)(F)F)c1 [Compound 13, 5-(Trifluoromethyl)-6-(8-(5-(trifluoromethyl)pyridin-2-ylamino)pyrido[2,3-b]pyrazin-3-yl)nicotinic acid] here?
A: The IC50 was less than 1000 nM.
